Our source for the Activity values is ChEMBL document CHEMBL4043115, “1,3-Oxazole-based selective picomolar inhibitors of cytosolic human carbonic anhydrase II alleviate ocular hypertension in rabbits: Potency is supported by X-ray crystallography of two leads” (Bioorg Med Chem, 2017).

Holding throughout (format): functional
The test system of assay [1] is Oryctolagus cuniculus. As to the kind of experiment: Ocular hypotensive activity in New Zealand albino rabbit eye assessed as reduction in hypertonic saline-induced intraocular pressure at 2% administered as eye drop measured at 60 mins post administration by applanation tonometry.
In assay [2] the test system is Oryctolagus cuniculus. As to the kind of experiment: Ocular hypotensive activity in New Zealand albino rabbit eye assessed as reduction in hypertonic saline-induced intraocular pressure at 1% administered as eye drop measured at 4 hrs post administration by applanation tonometry.
Assay [3] relates to Oryctolagus cuniculus. As to the kind of experiment: Ocular hypotensive activity in New Zealand albino rabbit eye assessed as reduction in hypertonic saline-induced intraocular pressure at 1% administered as eye drop measured at 60 mins post administration by applanation tonometry.

SMILES strings stand for the structures. Active and inactive are the calls of the source. No cut-off for these calls is given here.

Take `CCN[C@H]1C[C@H](C)S(=O)(=O)c2sc(S(N)(=O)=O)cc21`: in assay [1], the result was Active.
For `NS(=O)(=O)c1ccc(-c2cnc(C(=O)N3CCOCC3)o2)s1`, the outcome in assay [2] and in assay [3] was Active.
For the molecule `Cc1ncc(-c2ccc(S(N)(=O)=O)cc2)o1`, the result in assay [2] and in assay [3] was Active.
